Experimental data: article PMC3988085, “In Vitro Metabolism of 20(R)-25-Methoxyl-Dammarane-3, 12, 20-Triol from Panax notoginseng in Human, Monkey, Dog, Rat, and Mouse Liver Microsomes” (PLoS ONE, 2014)
Blank lines part the entries; values can stand above or below the compound they belong to.

What was measured:
[1] = target: CYP3A4 (Homo sapiens, UniProt P08684); test: Inhibition of CYP3A4 catalytic activity by 25(R)-OCH3-PPD; format: in vitro ADME
[2] = rat, in vivo, 10 mg/kg; cited from earlier work
[3] = tested on: mouse liver microsomes (MLM); test: Metabolite formation in mouse liver microsomes, 60 min; format: in vitro ADME, CD-1 mice; details: MLM 1 mg/ml, 50 µM 25(R)-OCH3-PPD, NADPH
Protocol: (§1) 25(R)-OCH3-PPD were incubated in hepatic microsomes to examine the potential P450-mediated metabolism. Stock solutions of 2 mM 25(R)-OCH3-PPD was prepared in methanol. The final methanol concentration in the incubation was 2.5% (v/v). The liver microsomes were carefully thawed on ice before the experiment.
(§2) For NADPH dependent oxidative metabolism study, the reaction media contained 1 mg/ml of microsomal proteins, 10 mM G-6-P, 10 mM MgCl2, 1 U/ml G-6-PDH, 50 µM concentration of 25(R)-OCH3-PPD in potassium phosphate buffer (pH 7.4; 0.1 M) in a total volume of 200 µl. Negative control incubations containing no NADPH-regenerating system were conducted. All incubations were performed at 37°C in a shaking water bath for 60 min.
(§3) After 5 min preincubation at 37°C, the incubation reactions were initiated with the addition of microsome proteins. After undergoing incubation for 60 min, the reactions were terminated with an equal volume of ice-cold acetonitrile and 10 µl diazepam (5 µg/ml, internal standard) was added. This sample was vortex-mixed and centrifuged at 14,000 g for 5 min. […] The residue was reconstituted in 100 µl of methanol with 0.1% formic acid, centrifuged 10 min at 18000 rpm and then an aliquot 5 µL of the supernatant was directly injected onto the HPLC-MS system for quanlitative or quantitative analysis.

[4] = tested on: dog liver microsomes (DLM); test: Metabolite formation in dog liver microsomes, 60 min; format: in vitro ADME, beagles; details: DLM 1 mg/ml, 50 µM 25(R)-OCH3-PPD, NADPH
Protocol: as §1, §2, §3

[5] = tested on: human liver microsomes (HLM); test: Metabolite formation in human liver microsomes, 60 min; format: in vitro ADME; details: HLM 1 mg/ml, 50 µM 25(R)-OCH3-PPD, NADPH
Protocol: as §1, §2, §3

[6] = tested on: cynomolgus monkey liver microsomes (CyLM); test: Metabolite formation in monkey liver microsomes, 60 min; format: in vitro ADME; details: CyLM 1 mg/ml, 50 µM 25(R)-OCH3-PPD, NADPH
Protocol: as §1, §2, §3

[7] = tested on: rat liver microsomes (RLM); test: Metabolite formation in rat liver microsomes, 60 min; format: in vitro ADME, Sprague-Dawley rats; details: RLM 1 mg/ml, 50 µM 25(R)-OCH3-PPD, NADPH
Protocol: as §1, §2, §3

[8] = tested on: CYP3A; test: Chemical inhibition study in human hepatic microsomes (ketoconazole); format: in vitro ADME
Protocol: The chemical inhibition study was performed by adding each of the specific inhibitors of P450 enzymes into the incubation of 25(R)-OCH3-PPD (3 or 10 µM) in 0.25 mg/ml HLM incubation systems containing an NADPH-regenerations system as described above. The chemical inhibitors and concentration were selected on the basis of previous reports and are as follows: α-naphthoflavone (10.0 µM) for CYP1A2, quercetin (10 µM) for CYP2C8, sulfaphenazole (10.0 µM) for CYP2C9, ticlopidine (5 µM) for CYP2C19, quinidine (10.0 µM) CYP2D6, diethyl dithiocarbamate (20 µM) for CYP2E1, and ketoconazole (0.1, 0.25, 0.5, 1 and 5 µM) for CYP3A.
The inhibitors were dissolved in dimethyl sulfoxide, and the final concentration of dimethyl sulfoxide in the incubation was 1% (v/v). The final incubation volume was 200 µl. Microsomes were preincubated for 5 min with a NADPH-regenerating system at 37°C, the reactions were initiated with the addition of 25(R)-OCH3-PPD and inhibitor. The reactions were terminated with an equal volume of ice-cold acetonitrile after 30 min of incubation. Parallel incubations without chemical inhibitors served as control. Samples were prepared as mentioned above to measure the concentration of parent and the metabolites by HPLC-MS/MS analysis.

Chain of CYP3A4 (P08684 whole entry): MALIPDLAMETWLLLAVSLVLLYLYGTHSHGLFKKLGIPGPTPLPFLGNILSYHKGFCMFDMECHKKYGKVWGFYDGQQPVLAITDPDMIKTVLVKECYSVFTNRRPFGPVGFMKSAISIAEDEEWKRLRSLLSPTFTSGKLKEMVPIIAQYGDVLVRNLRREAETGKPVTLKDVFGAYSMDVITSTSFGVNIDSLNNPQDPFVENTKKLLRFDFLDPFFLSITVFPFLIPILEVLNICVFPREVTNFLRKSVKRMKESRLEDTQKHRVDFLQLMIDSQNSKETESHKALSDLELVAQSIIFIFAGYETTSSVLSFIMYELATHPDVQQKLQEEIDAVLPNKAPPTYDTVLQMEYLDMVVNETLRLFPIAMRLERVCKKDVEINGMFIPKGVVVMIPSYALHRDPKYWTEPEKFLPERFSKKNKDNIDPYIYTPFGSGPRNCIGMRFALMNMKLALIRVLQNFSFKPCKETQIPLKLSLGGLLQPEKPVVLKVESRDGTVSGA

inhibition of the CYP3A4 catalytic activity [1]: NADPH and concentration-dependent
SMILES: COC(C)(C)CCC[C@@](C)(O)C1CC[C@]2(C)C1[C@H](O)CC1[C@@]3(C)CC[C@H](O)C(C)(C)C3CC[C@]12C (stereo partly drawn) [25(R)-OCH3-PPD, 20(R)-25-methoxyl-dammarane-3β, 12β, 20-triol]

SMILES: COC(C)(C)CCC[C@](C)(O)[C@H]1CC[C@]2(C)[C@@H]1[C@H](O)C[C@@H]1[C@@]3(C)CC[C@H](O)C(C)(C)[C@@H]3CC[C@]12C [25(S)-OCH3-PPD, 20(S)-25-methoxyl-dammarane-3beta, 12beta, 20-triol]
absolute bioavailability [2]: 19.7%

relative amount of metabolite formed [3]: dominant metabolite | relative amount of metabolite formed [4]: intermediate relative amount | relative amount of metabolite formed [5]: minor metabolite | relative amount of metabolite formed [6]: minor metabolite | relative amount of metabolite formed [7]: dominant metabolite
SMILES: CC(C)(O)CCC[C@@](C)(O)C1CC[C@]2(C)C1[C@H](O)CC1[C@@]3(C)CC[C@H](O)C(C)(C)C3CC[C@]12C (stereo partly drawn) [Metabolite M1]

SMILES: CC(=O)N1CCN(c2ccc(OCC3COC(Cn4ccnc4)(c4ccc(Cl)cc4Cl)O3)cc2)CC1 (stereo not drawn) [ketoconazole]
effect on the oxidative metabolism of 25(R)-OCH3-PPD ([8]; HLM 0.25 mg/ml, 25(R)-OCH3-PPD 10 µM, 30 min): significant inhibitory effect | inhibition of formation of M5 ([8]; HLM, ketoconazole 0.1 µM): completely | effect on formation of M1 and M6 ([8]; HLM, ketoconazole 5 µM): inhibited | effect on formation of M2, M3, M4, M5, M7 ([8]; HLM, ketoconazole 0.1-5 µM, concentration dependent): inhibited | effect on formation of M1 and M6 ([8]; HLM, ketoconazole 0.1–1 µM): activated
